Source: patent US20220411388A1, “SUBSTITUTED IMIDAZOLE CARBOXAMIDES AND THEIR USE IN THE TREATMENT OF MEDICAL DISORDERS” (Bial - R&D Investments, S.A., priority 2019, published 2022)
In brackets after ≈: the same amount, converted by molar mass.

Tests used:
acid ceramidase (hACR) = molecular target: T1, acid ceramidase (hACR) (Homo sapiens, UniProt Q13510); experiment: Acid ceramidase inhibition, biochemical fluorescent assay with cell lysates overexpressing acid ceramidase (substrate Rbm14-12); settings: cell lysate, 1 hr preincubation at RT, pH 4.5, Rbm14-12 6.3 μM; read-out: IC50 hACR
T1 construct: expressed in transfected cells
T1 sequence (Q13510 22-395): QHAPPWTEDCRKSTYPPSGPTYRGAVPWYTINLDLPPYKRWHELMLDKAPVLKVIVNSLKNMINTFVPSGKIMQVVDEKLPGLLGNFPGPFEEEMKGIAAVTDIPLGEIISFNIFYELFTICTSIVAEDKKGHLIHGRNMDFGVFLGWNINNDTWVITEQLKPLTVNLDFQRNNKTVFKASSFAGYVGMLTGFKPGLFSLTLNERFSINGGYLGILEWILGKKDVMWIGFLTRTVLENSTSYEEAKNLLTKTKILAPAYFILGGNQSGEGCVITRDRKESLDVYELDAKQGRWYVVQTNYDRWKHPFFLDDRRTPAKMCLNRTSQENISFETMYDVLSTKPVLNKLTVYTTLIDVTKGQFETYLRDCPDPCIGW
Protocol: The ability of exemplary compounds to inhibit acid ceramidase was measured.
Cell lysates overexpressing acid ceramidase were used as the enzyme source for compound potency determination in a biochemical fluorescent assay. Briefly, compounds were preincubated with 10 μg protein of cell lysates in a dose-response manner for 1 hr at RT in the assay buffer containing 25 mM NaAC and 100 mM NaCl, pH 4.5. […] The samples were incubated with the stopping buffer at RT for 1 hr to allow the fluorescent product to be formed. […] Data were collected and used to determine the IC50 values of compounds by curve fitting to the four-parameter inhibition equation.

[1] = Compound solubility in water; type: physicochemical

| SMILES | IC50 (acid ceramidase (hACR)) [nM] | solubility [1] [µg/mL] |
| --- | --- | --- |
| O=C(NCCc1ccccc1)n1cnc(-c2ccccc2)c1 [Example 2, N-Phenethyl-4-phenyl-1H-imidazole-1-carboxamide] | < 200 | 0.2 (≈ 0.686 µM) |
| CC(C)(C)c1cn(C(=O)NCCc2ccccc2)cn1 [Example 3, 4-tert-Butyl-N-phenethyl-1H-imidazole-1-carboxamide] | < 200 | 5.2 (≈ 19.2 µM) |
| O=C(NCCc1ccccc1)n1cnc(-c2ccccn2)c1 [Example 4, N-Phenethyl-4-(pyridin-2-yl)-1H-imidazole-1-carboxamide] | 200 to 1000 | 21.1 (≈ 72.2 µM) |
| O=C(NCCc1ccccc1)n1cnc(-c2cccnc2)c1 [Example 5] | 200 to 1000 | 16.2 (≈ 55.4 µM) |
| O=C(NCCc1ccccc1)n1cnc(-c2ccncc2)c1 [Example 6, N-Phenethyl-4-(pyridin-4-yl)-1H-imidazole-1-carboxamide] | > 1000 | 23.9 (≈ 81.8 µM) |
| Cc1nc(-c2ccccc2)cn1C(=O)NCCc1ccccc1 [Example 7, 2-Methyl-N-phenethyl-4-phenyl-1H-imidazole-1-carboxamide] | < 200 | 1.1 (≈ 3.6 µM) |
| COc1nc(-c2ccccc2)cn1C(=O)NCCc1ccccc1 [Example 8, 2-Methoxy-N-phenethyl-4-phenyl-1H-imidazole-1-carboxamide] | 200 to 1000 | 0.1 (≈ 0.311 µM) |
| O=C(NCCCc1ccccc1)n1cnc(-c2ccccc2)c1 [Example 9] | < 200 | 1.3 (≈ 4.26 µM) |
| COc1nc(C(C)(C)C)cn1C(=O)NCCc1ccccc1 [Example 11, 4-tert-Butyl-2-methoxy-N-phenethyl-1H-imidazole-1-carboxamide] | 200 to 1000 | 15.1 (≈ 50.1 µM) |
| COc1nc(-c2ccccc2)cn1C(=O)NCCCc1ccccc1 [Example 12, 2-Methoxy-4-phenyl-N-(3-phenylpropyl)-1H-imidazole-1-carboxamide] | 200 to 1000 | 1 (≈ 2.98 µM) |
| CC(C)(CNC(=O)n1cnc(-c2cccnc2)c1)c1ccccc1 [Example 13, N-(2-Methyl-2-phenylpropyl)-4-(pyridin-3-yl)-1H-imidazole-1-carboxamide] | < 200 | 1.9 (≈ 5.93 µM) |
| O=C(NCCCc1ccccc1)n1cnc(-c2cccnc2)c1 [Example 14, N-(3-Phenylpropyl)-4-(pyridin-3-yl)-1H-imidazole-1-carboxamide] | < 200 | 14.3 (≈ 46.7 µM) |
| CC(CNC(=O)n1cnc(-c2cccnc2)c1)Cc1ccccc1 (stereo not shown) [Example 15, N-(2-Methyl-3-phenylpropyl)-4-(pyridin-3-yl)-1H-imidazole-1-carboxamide] | < 200 | 16.1 (≈ 50.3 µM) |
| CC(CCNC(=O)n1cnc(-c2cccnc2)c1)c1ccccc1 (stereo not shown) [Example 16, N-(3-Phenylbutyl)-4-(pyridin-3-yl)-1H-imidazole-1-carboxamide] | < 200 | 3.8 (≈ 11.9 µM) |
| O=C(NCCOc1ccccc1)n1cnc(-c2cccnc2)c1 [Example 17, N-(2-Phenoxyethyl)-4-(pyridin-3-yl)-1H-imidazole-1-carboxamide] | < 200 | 2.6 (≈ 8.43 µM) |
| O=C(NCCOc1ccccc1)n1cnc(-c2ccccc2)c1 [Example 18, N-(2-Phenoxyethyl)-4-phenyl-1H-imidazole-1-carboxamide] | < 200 | 0.06 (≈ 0.195 µM) |
| CC(C)(C)c1cn(C(=O)NCCOc2ccccc2)cn1 [Example 19, 4-tert-Butyl-N-(2-phenoxyethyl)-1H-imidazole-1-carboxamide] | < 200 | 0.8 (≈ 2.78 µM) |
| CC(C)(C)c1cn(C(=O)NCCc2cccnc2)cn1 [Example 20, 4-tert-Butyl-N-(2-(pyridin-3-yl)ethyl)-1H-imidazole-1-carboxamide] | 200 to 1000 | 0.2 (≈ 0.734 µM) |
| CC(C)CCNC(=O)n1cnc(-c2cccnc2)c1 [Example 21, N-iso-Pentyl-4-(pyridin-3-yl)-1H-imidazole-1-carboxamide] | 200 to 1000 | 21.5 (≈ 83.2 µM) |
| O=C(NCCC1CC1)n1cnc(-c2cccnc2)c1 [Example 22, N-(2-Cyclopropylethyl)-4-(pyridin-3-yl)-1H-imidazole-1-carboxamide] | 200 to 1000 | 23 (≈ 89.7 µM) |
| O=C(NCCC1(C(F)(F)F)CC1)n1cnc(-c2cccnc2)c1 [Example 23, 4-(Pyridin-3-yl)-N-(2-(1-(trifluoromethyl)cyclopropyl)ethyl)-1H-imidazole-1-carboxamide] | 200 to 1000 | 23.7 (≈ 73.1 µM) |

| SMILES | IC50 (acid ceramidase (hACR)) [nM] | solubility [1] [µg/mL] |
| --- | --- | --- |
| CC(C)OCCNC(=O)n1cnc(-c2cccnc2)c1 [Example 24, N-(2-iso-Propoxyethyl)-4-(pyridin-3-yl)-1H-imidazole-1-carboxamide] | > 1000 | 12.6 (≈ 45.9 µM) |
| O=C(NCCC1(C(F)(F)F)CC1)n1cnc(-c2ccccc2)c1 [Example 25, 4-Phenyl-N-(2-(1-(trifluoromethyl)cyclopropyl)ethyl)-1H-imidazole-1-carboxamide] | < 200 | 0.8 (≈ 2.47 µM) |
| O=C(NCCC1CC1)n1cnc(-c2ccccc2)c1 [Example 26, N-(2-Cyclopropylethyl)-4-phenyl-1H-imidazole-1-carboxamide] | 200 to 1000 | 1.9 (≈ 7.44 µM) |
| CC(C)CCNC(=O)n1cnc(-c2ccccc2)c1 [Example 27, N-iso-Pentyl-4-phenyl-1H-imidazole-1-carboxamide] | < 200 | 3.1 (≈ 12 µM) |
| N#Cc1ccc(-c2cn(C(=O)NCCc3ccccc3)cn2)cn1 [Example 28, 4-(6-Cyanopyridin-3-yl)-N-phenethyl-1H-imidazole-1-carboxamide] | < 200 | 5 (≈ 15.8 µM) |
| Cc1ccc(-c2cn(C(=O)NCCc3ccccc3)cn2)cn1 [Example 29, 4-(6-Methylpyridin-3-yl)-N-phenethyl-1H-imidazole-1-carboxamide] | < 200 | 3 (≈ 9.79 µM) |
| O=C(NCCc1ccccc1)n1cnc(-c2ccc(F)nc2)c1 [Example 30, 4-(6-Fluoropyridin-3-yl)-N-phenethyl-1N-imidazole-1-carboxamide] | < 200 | 3.4 (≈ 11 µM) |
| COc1ccc(-c2cn(C(=O)NCCc3ccccc3)cn2)cn1 [Example 31, 4-(6-Methoxypyridin-3-yi)-N-phenethyl-1H-imidazole-1-carboxamide] | < 200 | 25.1 (≈ 77.9 µM) |
| O=C(NCCCC1CC1)n1cnc(-c2cccnc2)c1 [Example 32, N-(3-Cyclopropylpropyl)-4-(pyridin-3-yl)-1H-imidazole-1-carboxamide] | 200 to 1000 | 27.6 (≈ 102 µM) |
| CC(C)CCCNC(=O)n1cnc(-c2cccnc2)c1 [Example 33] | 200 to 1000 | 18.9 (≈ 69.4 µM) |
| CN(C)Cc1ccc(-c2cn(C(=O)NCCc3ccccc3)cn2)cc1 [Example 34, 4-(4-((Dimethylamino)methyl)phenyl)-N-phenethyl-1H-imidazole-1-carboxamide] | < 200 | 25.6 (≈ 73.5 µM) |
| CC(C)CNC(=O)n1cnc(-c2cccnc2)c1 [Example 35, N-iso-Butyl-4-(pyridin-3-yl)-1H-imidazole-1-carboxamide] | > 1000 | 19.1 (≈ 78.2 µM) |
| COc1ccc(-c2cn(C(=O)NCCC(C)C)cn2)cn1 [Example 36, N-iso-Pentyl-4-(6-methoxypyridin-3-yl)-1H-imidazole-1-carboxamide] | 200 to 1000 | 2.9 (≈ 10.1 µM) |
| Cc1ccc(-c2cn(C(=O)NCCC(C)C)cn2)cn1 [Example 37, N-iso-Pentyl-4-(6-methylpyridin-3-yl)-1H-imidazole-1-carboxamide] | > 1000 | 7.3 (≈ 26.8 µM) |
| CC(C)CCNC(=O)n1cnc(-c2ccccc2C2CCN(C)CC2)c1 [Example 38, N-iso-Pentyl-4-(2-(1-methylpiperidin-4-yl)phenyl)-1H-imidazole-1-carboxamide] | 200 to 1000 | 35.3 (≈ 99.6 µM) |
| CC(C)CCCCNC(=O)n1cnc(-c2cccnc2)c1 [Example 39, N-(5-Methylhexyl)-4-(pyridin-3-yl)-1H-imidazole-1-carboxamide] | < 200 | 2.7 (≈ 9.43 µM) |
| CC(C)CCNC(=O)n1cnc(-c2ccncc2)c1 [Example 41, N-iso-Pentyl-4-(pyridin-4-yl)-1H-imidazole-1-carboxamide] | > 1000 | 22.1 (≈ 85.6 µM) |
| O=C(NCc1ccccc1)n1cnc(-c2cccnc2)c1 [Example 42] | 200 to 1000 | 13.6 (≈ 48.9 µM) |
| CC(C)c1ccc(-c2cn(C(=O)NCCc3ccccc3)cn2)cn1 [Example 43, 4-(6-iso-Propylpyridin-3-yl)-N-phenethyl-1H-imidazole-1-carboxamide] | < 200 | 0.8 (≈ 2.39 µM) |
| CN1CCN(c2ncccc2-c2cn(C(=O)NCCCC3(C(F)(F)F)CC3)cn2)CC1 [Example 176, 4-(2-(4-Methylpiperazin-1-yl)pyridin-3-yl)-N-(3-(1-(trifluoromethyl)cyclopropyl)propyl)-1H-imidazole-1-carboxamide] |  | 29 (≈ 66.4 µM) |
| COc1nc(Cl)cn1C(=O)NCC#CC(C)C [Example 186, 4-Chloro-2-methoxy-N-(4-methylpent-2-yn-1-yl)-1H-imidazole-1-carboxamide] | 200 to 1000 |  |
